In article PMC8692498, “Synthesis and multifaceted pharmacological activity of novel quinazoline NHE-1 inhibitors” (Scientific Reports, 2021):
“Also recorded” adds a separate entry of the source.

Experiments:
NHE-1 [1] = target: T1, NHE-1 (Oryctolagus cuniculus, UniProt P23791); experiment: NHE-1 inhibition assay on rabbit platelets (platelet shape change after acidification with sodium propionate, laser aggregometer); assay type: cell-based
T1 construct: endogenous in cells; host or cells: rabbit platelets in platelet-rich plasma (male rabbits)
T1 sequence (P23791 whole entry): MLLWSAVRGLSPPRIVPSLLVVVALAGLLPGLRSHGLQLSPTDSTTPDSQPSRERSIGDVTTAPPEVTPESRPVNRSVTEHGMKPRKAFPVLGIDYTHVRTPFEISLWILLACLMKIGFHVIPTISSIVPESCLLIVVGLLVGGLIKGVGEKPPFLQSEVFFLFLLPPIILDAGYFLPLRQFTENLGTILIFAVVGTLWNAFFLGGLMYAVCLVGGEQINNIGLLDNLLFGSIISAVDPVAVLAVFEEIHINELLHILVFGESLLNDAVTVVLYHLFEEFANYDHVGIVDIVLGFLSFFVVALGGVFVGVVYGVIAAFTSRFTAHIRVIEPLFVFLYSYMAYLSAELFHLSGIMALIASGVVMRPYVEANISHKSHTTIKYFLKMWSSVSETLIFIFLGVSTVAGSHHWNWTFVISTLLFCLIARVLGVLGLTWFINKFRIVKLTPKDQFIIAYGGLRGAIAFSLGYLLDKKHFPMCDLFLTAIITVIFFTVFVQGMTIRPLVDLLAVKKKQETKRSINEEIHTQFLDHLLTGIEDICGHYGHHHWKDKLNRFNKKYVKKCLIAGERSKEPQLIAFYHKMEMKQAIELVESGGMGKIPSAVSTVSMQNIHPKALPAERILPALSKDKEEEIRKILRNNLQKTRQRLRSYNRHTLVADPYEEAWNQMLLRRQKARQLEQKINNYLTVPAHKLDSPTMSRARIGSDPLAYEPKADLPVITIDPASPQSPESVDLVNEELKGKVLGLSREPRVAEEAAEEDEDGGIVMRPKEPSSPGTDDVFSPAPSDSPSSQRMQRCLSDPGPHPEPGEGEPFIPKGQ

NHE-1 [2] = target: T1, NHE-1; experiment: as above; assay type: cell-based; conditions: for inhibition at 0.01 µM: 10 nM, rabbit platelet-rich plasma, decimal commas, read-out: NHE-1 inhibition at 10 nM, m ± SD, n = 6 (%); for NHE-1 inhibitory activity (in words): compared with reference drugs
Procedure: Evaluation of NHE-1 inhibition was carried out on rabbit platelets by the known method[39],[40]. The experiments were carried out on 15 male rabbits weighing 3.0-4.0 kg. Platelet-rich plasma (PRP) was obtained by centrifuging blood with 3.8% sodium citrate (1:10) at 1000 rpm for 12 min (Multi centrifuge CM 6M, Latvia). Platelet shapeshifting due to acidification was followed with a laser aggregometer BIOLA-220 LA (Russia). Test compounds (10 μl, 10 nM final concentration) were added to 200 μl of PRP 5 min in a cuvette before the addition of sodium propionate solution, incubated with constant stirring using a magnetic stirrer (800 rpm, 37 °C). To control samples for NHE-1 activation, a buffer solution containing sodium propionate was added to 200 μL of PRP (600 μL, 135 mM sodium propionate, 20 mM HEPES, 1 mM CaCI2, 1 mM MgCI2, 10 mM glucose; pH 6.7). The change in light transmission at pH 7.4, 37 °C was monitored in a Krebs solution (600 μL, 120 mM NaCl, 4.8 mM KCl, 1.2 mM KH2PO4, 2.5 mM MgSO4, 25 mM NaHCO3, 2.6 mM CaCl2, 5.4 mM glucose; pH 7.4). Test compounds were added to a final concentration of 10 nM to the cuvette into 200 μl of PRP 5 min before adding the sodium propionate solution, incubated with constant stirring using a magnetic stirrer (800 rpm, 37 °C). NHE-1 inhibitors zoniporide, rimeporide, amiloride were used as reference drugs. Assays were run in 6 independent series.

rabbit platelets = experiment: ADP-induced platelet aggregation assay in rabbit platelet-rich plasma; assay type: cell-based; conditions: 100 μM, ADP 5 μM
Procedure: (§1) Functional activity of platelets was determined on a two-channel laser analyzer of platelet aggregation "BIOLA-220 LA" (Russia) as described previously. The experiments were carried out on 6 male rabbits weighing 3.5–4 kg. To prepare platelet-rich plasma (PRP) venous blood was taken from the ear marginal vein of a rabbit, stabilized with a 3.8% sodium citrate solution in a ratio of 9:1 and centrifuged for 10 min at 1500 rpm. PRP (300 μL) and a solution of the test compound at a concentration of 100 μM were sequentially introduced into the cell of the aggregometer. The samples were incubated in thermostated cells of the aggregometer at 37 °C for 5 min. To induce aggregation adenosine-5-diphosphoric acid (ADP, Sigma, USA) at a final concentration of 5 μM, was added to the cuvette. Acetylsalicylic acid (Shandong Xinhua Pharmaceutical Co., Ltd., China) was used as a reference drug. Experiments were run in 5 independent replicates.

[3] = Cytotoxicity study (LDH activity in the medium) in peritoneal macrophages; assay type: cell-based; conditions: male, C57BL/6J, mouse, primary peritoneal macrophages; murine peritoneal macrophages, LDH, unit printed in Cyrillic
Procedure: (§2) Peritoneal macrophages (PM) were isolated from the peritoneal exudate of 30 male C57bl/6j mice. To accumulate PM, 1 ml of 3% peptone solution was injected intraperitoneally. After 3 days the mice were euthanized by cervical dislocation. Cells of peritoneal exudate were obtained by aseptically washing the abdominal cavity with 5 ml of sterile Hanks’s solution (+ 4-6 °C) without calcium and magnesium ions. The total number and viability of cells were assessed in a Goryaev counting chamber (Russia) with a 0.4% trypan blue staining (Sigma-Aldrich, USA). The cell concentration was adjusted to 1.0×10^6 cells/ml in DMEM (Gibco) supplemented with 2 mM L-glutamine (Gibco), 10% heat-inactivated fetal bovine serum (BioClot, Germany), 100 U/ml penicillin and […] streptomycin (Gibco) and plated 200 μl/well in 96-well transparent plates (SPL Life Sciences Co., Ltd., Korea). It was left for 2 h at 37°C in a humidified atmosphere with 5% CO2, after which the wells were washed to remove non-adherent cells. After 24 hours of incubation, 20 μl of the supernatant was removed and 20 μl of solutions of test compounds were added 30 min before E. coli O127:B8 LPS (100 ng/ml final concentration). Experiments were run in 3 independent replicates.
(§3) The activity of lactate dehydrogenase (LDH) in a cell culture medium served as a marker of membrane permeability and cell death. Aliquotes of supernatants were taken after 24 h of inoculation with test compounds, mixed with 250 μl of […] NADH solution in 54 mM phosphate buffered saline (pH 7.5). Then, 25 μl of a 6.48 mM pyruvate solution was added to the mixture. The optical density was followed at a wavelength of 340 nm for 20 min. Conversion of optical density into cell viability was carried out according to a standard curve (DMSO-treated cells as 100% and 0.01% Triton X-100-treated cells as 0% viable cells).

[4] = system: primary peritoneal macrophages of C57BL/6J mice; experiment: Interleukin-6 secretion (ELISA) from LPS-stimulated peritoneal macrophages; assay type: cell-based; conditions: for secretion of interleukin 6: LPS-stimulated macrophages, screening (Fig. 4)
Procedure: as §2
Cell supernatant was collected and centrifuged at 1000 g for 20 min in a 2-16PK Sigma centrifuge (Germany). The concentration of IL-6 was determined by ELISA using a commercial kit (Cloud-clone ELISA kit) with a microplate reader Infinite M200 PRO (Tecan, Austria).

[5] = system: primary peritoneal macrophages of C57BL/6J mice; experiment: Nitric oxide synthesis (nitrite, Griess reagent) in LPS-stimulated peritoneal macrophages; assay type: cell-based; conditions: 100 μM
Procedure: as §2
The accumulation of nitrite anion (a stable end product of NO decomposition produced by iNOS) in supernatants was determined using a standard Griess reagent. Briefly, 50 μl of supernatants collected 22 hours after incubation of PM with test and control compounds were mixed with 50 μl of 1% sulfonamide in 2.5% H3PO4 and 50 μl of 0.1% N-(1-naphthyl) ethylenediamine in 2,5% H3PO4. After incubation at 23 °C for 10 min in an orbital shaker, the optical density was determined at a wavelength of 550 nm with a microplate reader Infinite M200 PRO (Tecan, Austria).

intraocular pressure = experiment: Intraocular pressure studies in outbred rats (TonoVet); assay type: in vivo
Procedure: The experiments were carried out on 75 adult outbred rats of both sexes, which were kept in standard cages at a temperature of 25 °C and a standard light regime. Animals were randomly assigned to the control and experimental groups (n = 5). Before the start of the experiment, the rats had free access to food and water. Intraocular pressure (IOP) was measured with a TonoVet device (Finland)[44] which measures IOP with a short touch of a small disposable tip in the center of the cornea, no corneal anesthesia is required. The study was carried out according to the published method. One drop (50 μl) of a test 0.4% solution of the compound was instilled into the right eye, and deionized water was added to the left eye. IOP was measured in both eyes. The left eye, in turn, serves to assess the possible systemic exposure of the test compounds. […] IOP-lowering activity was assessed as the maximum decrease in IOP from the initial values. At 9:00 AM, baseline IOP was measured in animals of all groups. Experiments were run in 5 independent replicates.

[6] = system: primary peritoneal macrophages of C57BL/6J mice; experiment: Cytotoxicity study (LDH activity in the medium) in peritoneal macrophages; assay type: cell-based; conditions: 100 μM, peritoneal macrophages
Procedure: as §2, §3

[7] = Solubility under the conditions of the platelet aggregation assay; assay type: physicochemical; conditions: antiplatelet assay
Procedure: Test compounds were dissolved in 99% DMSO (stock concentration 40 mM) and stored at –25 °C. If sediment or opalescence was detected, 5% Tween 20 (Merck) was added. Serial dilutions were prepared ex tempore in a media suitable for the particular study. Final concentration in samples: DMSO <0.25%, Tween 20 <0.025% (were added to control samples in equal concentrations).
as §1

Row | SMILES | IC50 (NHE-1 [1]) [nM] | inhibition at 0.01 µM (NHE-1 [2]) [%] | melting point [°C] | NHE-1 inhibitory activity (in words) (NHE-1 [2]) | other results
1 | [H]/N=C(\N)NC(=O)c1cc(S(C)(=O)=O)c(S(C)(=O)=O)cc1C [Rimeporide, rimeporide, reference compound] |  | 34.2 |  |  | 
2 | C=CCn1c(=O)n(C(C)c2nnc(N)[nH]2)c(=O)c2ccccc21 (centres unmarked) [Compound 3h, 3-[1-(5-Amino-4H-1,2,4-triazol-3-yl)ethyl]-1-(prop-2-en-1-yl)quinazoline-2,4(1H,3H)-dione] |  | 33.2 |  | comparable to the reference drug rimeporide | antiplatelet activity versus acetylsalicylic acid (rabbit platelets): exceeded the activity of the reference drug, acetylsalicylic acid
3 | C=CCn1c(=O)n(Cc2nnc(N)[nH]2)c(=O)c2ccccc21 [Compound 3g, 3-[(5-Amino-4H-1,2,4-triazol-3-yl)methyl]-1-(prop-2-en-1-yl)quinazoline-2,4(1H,3H)-dione] |  | 10.4 | 275 to 277 |  | 
4 | C=CCn1c(=O)n(C(C)c2nnc(N)[nH]2)c(=O)c2ccccc21 (centres unmarked) (hydrate or solvate) [Compound 3h, 3-[1-(5-Amino-4H-1,2,4-triazol-3-yl)ethyl]-1-(prop-2-en-1-yl)quinazoline-2,4(1H,3H)-dione] |  |  | 116 to 118 |  | 
5 | CC(c1nnc(N)[nH]1)n1c(=O)c2ccccc2n(C)c1=O (centres unmarked) [Compound 3f, 3-[1-(5-Amino-4H-1,2,4-triazol-3-yl)ethyl]-1-methylquinazoline-2,4(1H,3H)-dione] |  | 29.8 |  |  | antiplatelet activity versus acetylsalicylic acid (rabbit platelets): exceeded the activity of the reference drug, acetylsalicylic acid
6 | CC(c1nnc(N)[nH]1)n1c(=O)c2ccccc2n(C)c1=O (centres unmarked) (hydrate or solvate) [Compound 3f, 3-[1-(5-Amino-4H-1,2,4-triazol-3-yl)ethyl]-1-methylquinazoline-2,4(1H,3H)-dione] |  |  | 91 to 93 |  | 

Second part, led by results:

Row | IC50 (NHE-1 [1]) [nM] | inhibition at 0.01 µM (NHE-1 [2]) [%] | melting point [°C] | SMILES | NHE-1 inhibitory activity (in words) (NHE-1 [2]) | other results
7 | 7.3 | 48 |  | N=C(N)NC(=O)c1cnn(-c2cccc3ncccc23)c1C1CC1 [Zoniporide, zoniporide, reference compound] |  | 
8 | 1230 | 16.4 |  | N=C(N)NC(=O)c1nc(Cl)c(N)nc1N [Amiloride, amiloride, reference compound] |  | CC50 at 24 h [3]: > 100000 nM; IC50 ([4]; Mus musculus, Peritoneal macrophage, LPS-stimulated murine macrophages, unit printed in Cyrillic, read-out: IC50 of IL-6 secretion): 9520 nM
9 |  | 7.3 | 180 to 183 | N=C(N)NC(=O)Cn1c(=O)c2ccccc2n(Cc2ccccc2)c1=O [Compound 3c, 2-(1-Benzyl-2,4-dioxo-1,4-dihydroquinazolin-3(2H)-yl)-N-carbamimidoylacetamide] |  | secretion of interleukin 6 [4]: suppressed
10 |  | 1.49 | 216 to 219 | CC(C(=O)NC(=N)N)n1c(=O)c2ccccc2n(C)c1=O (centres unmarked) [Compound 3b, N-Carbamimidoyl-2-(1-methyl-2,4-dioxo-1,4-dihydroquinazolin-3(2H)-yl)propanamide] |  | secretion of interleukin 6 [4]: suppressed
11 | 961 | 33.2 |  | Cn1c(=O)n(CC(=O)NC(=N)N)c(=O)c2cc(Br)ccc21 [Compound 3d, 2-(6-Bromo-1-methyl-2,4-dioxo-1,4-dihydroquinazolin-3(2H)-yl)-N-carbamimidoylacetamide] | comparable to the reference drug rimeporide | inhibition of the synthesis of nitric oxide [5]: statistically significantly inhibit; IOP-lowering effect size (intraocular pressure; compared with zoniporide and timolol): comparable to zoniporide and superior to timolol; IOP-lowering activity (intraocular pressure; one drop (50 μl) of 0.4% solution instilled): statistically significant activity; also recorded: markedly reduce intraocular pressure; effect on cell viability [6]: absence of a statistically significant effect on cell viability
12 | 6.7 | 54.1 |  | Nc1nnc(Cn2cnc3ccccc3c2=O)[nH]1 [Compound 6a, 3-[(5-Amino-4H-1,2,4-triazol-3-yl)methyl]quinazolin-4(3H)-one] | more potent and comparable to zoniporide | solubility under assay conditions [7]: insoluble under assay conditions
13 | 293 | 33.7 | 266 to 269 | Cn1c(=O)n(CC(=O)NC(=N)N)c(=O)c2ccccc21 [Compound 3a, N-Carbamimidoyl-2-(1-methyl-2,4-dioxo-1,4-dihydroquinazolin-3(2H)-yl)acetamide] | comparable to the reference drug rimeporide | antiplatelet activity versus acetylsalicylic acid (rabbit platelets): exceeded the activity of the reference drug, acetylsalicylic acid
